Source: patent US4379091A, “Esters of arylpropionic acids endowed with an anti-inflammatory activity” (priority 1980, dated 1983)

Legend:
[1] = tested on: carrageenin edema; experiment: carrageenin edema test in the rat (percent protection); assay type: in vivo, rat (Wistar); settings: for peak of activity (time) / time course of activity after the peak: carrageenin edema; for peak of activity (time) / time course of activity after the peak / Percent protection from the carrageenin edema: oral; for Percent protection from the carrageenin edema: detection after 4 hours, ibuprofen 100 mg/kg, MR-653 200 mg/kg (equimolar)
Procedure: 1 percent carrageenin in saline was given, at the rate of 0.1 ml subcutaneously, into the plantar area of the left paw.
The compounds were administered 1, 3 and 6 hours respectively before the carrageenin injection; the related values were always read 4 hours after the carrageenin injection, duly assessing the percent swelling of the paw versus the value at the time 0 (carrageenin inocula). The results are expressed as percent protection considering the swelling in the control group as equal to 100.

[2] = acute toxicity, oral LD 50 in the mouse; assay type: in vivo; settings: in vivo; mouse, oral
[3] = tested on: mouse; experiment: acute toxicity, oral LD 50 in the mouse; assay type: in vivo; settings: versus the corresponding acid (ibuprofen for MR-653)
[4] = tested on: abdominal squirmings (phenylquinone); experiment: analgesic activity: abdominal squirmings induced by phenylquinone; assay type: in vivo; settings: oral, 100 mg/kg (equimolar doses), one hour before; 20 minutes observation
Procedure: Abdominal squirmings were induced by an intraperitoneal injection in saline, given at the dose of 4 mg/kg/20 ml.

[5] = tested on: squirmings (acetylcholine); experiment: acetylcholine test: squirmings induced by acetylcholine; assay type: in vivo, mouse; settings: oral, one hour before acetylcholine, equimolar doses; 4 minutes observation
Procedure: Squirmings were induced by an intraperitoneal injection of acetylcholine ([…]; 0.5 ml per mouse); both compounds were given orally one hour before the administration of acetylcholine at the dose of 10 mg/kg, in equimolar doses. […] The results reported below were obtained in comparison with the control group: […]

[6] = tested on: gastric mucosa; experiment: gastric injuring effects; assay type: in vivo, Wistar rats
Procedure: The compounds were given intraperitoneally at the equimolar dose of 500 mg/kg. The animals were killed 5 hours after the treatment in order to assess the conditions of the gastric mucosa, and the possible presence of bleedings and ulcers.

[7] = solubility; assay type: physicochemical
[8] = tested on: carrageenin edema; experiment: carrageenin edema test in the rat (percent protection); assay type: in vivo, rat (Wistar); settings: oral, ibuprofen 100 mg/kg, MR-653 200 mg/kg (equimolar)
[9] = plasma kinetics of ibuprofen and MR-653 in the male rat
From the text: The investigational drugs were given by oral gavage, suspended in 0.5 percent gum arabic; an analogous suspension was used in the case of the intraperitoneal administration.

[10] = intraperitoneal, equimolar dose of 500 mg/kg, 5 hours after treatment

SMILES	peak of activity (time) ([1]; equimolar doses)	time course of activity after the peak ([1]; equimolar doses)	Percent protection from the carrageenin edema [1] [%]	protection versus the control group (phenylquinone squirming) [4] [%]	protection versus control group (acetylcholine squirming) [5] [%]	incidence of punctiform ulcer [6, 10] [%]	Percent protection from the carrageenin edema ([8]; detection after 1 hour) [%]	Percent protection from the carrageenin edema ([8]; detection after 2 hours) [%]	Percent protection from the carrageenin edema ([8]; detection after 3 hours) [%]	Percent protection from the carrageenin edema ([8]; detection after 6 hours) [%]	other results
CC(C)Cc1ccc(C(C)C(=O)OCCOCCOCCOCCO)cc1 (stereo not drawn) [MR-653, Monoester of 2-(4-isobutyl-phenyl)propionic acid with tetraethylene glycol]	around the first hour	markedly slower	44	20	48	16	64	59	47	34	anti-inflammatory activity higher than that of ibuprofen until the 6th hour ([1]; equimolar doses, versus ibuprofen): 48%; LD50 [2]: > 2000 mg/kg; toxicity compared with the corresponding acid [3]: practically unchanged values of toxicity and gastric injuring effects; condition of stomach / peritoneum [6, 10]: mildly hyperemic peritoneal exudate; gastric injuring effects compared with the corresponding acid ([6]; versus the corresponding acid (ibuprofen for MR-653)): practically unchanged values of toxicity and gastric injuring effects; solubility in organic solvents ([7]; methanol, diethyl ether, acetone and chloroform): soluble on the other hand in methanol, diethyl ether, acetone and chloroform; solubility in water ([7]; water): practically insoluble in water
CC(C)Cc1ccc(C(C)C(=O)O)cc1 (stereo not drawn) [Ibuprofen, 2-(4-isobutyl-phenyl) propionic acid]	around the first hour	rapid and progressive decrease even starting from the second hour	24	20	50	14	60	44	28	20	condition of stomach / peritoneum ([6]; rat, in vivo, ip, 500 mg/kg): almost normal mucosa with a fair quantity of a yellowish foamy secretion; time of peak of the plasma levels of ibuprofen ([9]; plasma kinetics, oral): at the first hour; AUC at 7 h ([9]; rat, in vivo, ip, 58.8 mg/kg): ~325 µg·h/mL; concentration at 0.5 h ([9]; rat, in vivo, ip, 58.8 mg/kg): 215000 ± 33400 ng/mL; concentration at 1 h ([9]; rat, in vivo, ip, 58.8 mg/kg): 105000 ± 12400 ng/mL; concentration at 2 h ([9]; rat, in vivo, ip, 58.8 mg/kg): 18300 ± 11000 ng/mL; concentration at 7 h ([9]; rat, in vivo, ip, 58.8 mg/kg): 6200 ± 2400 ng/mL; AUC at 7 h ([9]; rat, in vivo, po, 58.8 mg/kg): ~190 µg·h/mL; concentration at 1 h ([9]; rat, in vivo, po, 58.8 mg/kg): 71700 ± 23600 ng/mL; concentration at 2 h ([9]; rat, in vivo, po, 58.8 mg/kg): 32200 ± 7700 ng/mL; concentration at 5 h ([9]; rat, in vivo, po, 58.8 mg/kg): 12100 ± 22000 ng/mL; concentration at 7 h ([9]; rat, in vivo, po, 58.8 mg/kg): 9100 ± 1500 ng/mL
